US6867235B2, “Helianthrone derivatives as anti-cancer agents” (Yeda Research and Development Co. Ltd., priority 2000, dated 2005)

Experiments:
[1] = test system: U251 human glioblastoma cells; assay type: cell-based; conditions: U251, complete darkness, exposure at least 72 hours, 0.1-20 μM
Description: (§1) Human HL-60 leukemic cells were grown in RPMI-1640 supplemented with 15% fetal calf serum, […] and 100 units/ml penicillin-streptomycin. Human erythroleukemia K-562 cells (derived from a chronic myeloid leukemia pateient) were grown in the same medium supplemented with 10% fetal calf serum. These cells and the human U251 glioblastoma, U87MG glioblastoma and LAN5 neuroblastoma cells used in the experiments are available from the ATCC. All cell lines were cultured in a humidified 5% CO2/95% air atmosphere at 37° C.
(§2) Cell viability was monitored by the MTT assay which measures reduction of 3-(4,5-dimethylthiazol-2-yl)-2,5-diphenyl tetrazolium bromide to formasan by mitochondria of viable cells as described in Mossman, T., J. Immunogen., 21, 235-248 (1983). The cells are incubated with MTT for four hours at 37° C. and analyzed in an ELISA reader at 560 nm. The optical density of formasan generated by untreated cell cultures (O.D. control) is defined as one MTT unit. The number of MTT units in culture samples undergoing treatments is calculated as the ratio (O.D.sample−O.D.blank)/O.D.control).
Three human malignant cell lines were evaluated to sensitivity to dimethyl TMH in vitro. […] The medium was aspirated, the adherent monolayer was washed with phosphate-buffered saline, and cell viability was monitored by the MTI assay. […]

LAN5 neuroblastoma cells = experiment: MTT cell viability in complete darkness, LAN5 cells; assay type: cell-based, human; conditions: exposure at least 72 hours, 0.1-20 μM
Description: as §1, §2
(§3) Three human malignant cell lines were evaluated to sensitivity to dimethyl TMH in vitro. […] The medium was aspirated, the adherent monolayer was washed with phosphate-buffered saline, and cell viability was monitored by the MTI assay.

U87MG glioblastoma cells = experiment: MTT cell viability in complete darkness, U87MG cells; assay type: cell-based, human
Description: as §1, §2, §3

[2] = test system: human peripheral blood lymphocytes (PBL); experiment: MTT viability of primary peripheral blood lymphocytes in the dark and with light; assay type: cell-based; conditions: 72 hours
Description: as §2
Human peripheral blood lymphocytes (PBL) are non-proliferating cells in the absence of mitogenic stimuli. The effects of different doses of dimethyl-TMH on PBL were examined in the presence or absence of irradiation with polychromatic white light. PBL (post-mitotic) were plated (2×10^5 cells/well) in two separate round bottom 96-well plates (in triplicates). Dimethyl-TMH was added to the cultures. One plate was kept in the dark, and the other was exposed to polychromatic white light at a fluence rate of 8 mW/cm^2 for 30 min (a total of 14.4 J/cm^2). Both plates were then cultured at 37° C., 5% CO2 for 72 hours and cell viability was assayed by the MTT assay.

[3] = test system: U251 human glioblastoma cells; experiment: Cell cycle and DNA content analysis (propidium iodide, FACS) in the dark; assay type: cell-based; conditions: for cell cycle arrest: U251, dark
Description: The cells were then stained with propidium iodide, washed with PBS and analyzed in a fluorescence activated cell sorter (FACS). A computer program arranged the DNA-related fluorescence as follows: the minimal amount of fluorescence is considered to be one whole set of cellular DNA related to the resting G1 phase. A double amount of fluorescence is considered to be G2 phase, in which the whole genome is duplicated following complete DNA synthesis, and the in-between amounts are considered to be the DNA synthetic S-phase, in which the total DNA synthesis is not yet completed.

[4] = test system: SQ2 anaplastic squamous cell carcinoma; experiment: Tumor foci in BALB/c mice bearing SQ2 squamous cell carcinoma treated with dimethyl-TMH; assay type: in vivo; conditions: for number of tumor foci / multifocal spread of the tumor: SQ2 tumor-bearing mice versus control
Description: The effective cytocidal activity of dimethyl-TMH in vitro encouraged the evaluation of its safety and anti-tumoral efficacy profile in tumor-bearing mice. Experiments were carried out in mice bearing tumors derived from the SQ2 highly metastatic anaplastic squamous cell carcinoma (SCC) line. This tumor develops as multifocal centers that spread at the vicinity of the primary tumor and metastases develop approximately two months after cell inoculation. Treatments with 300-600 μM dimethyl-TMH/mouse, administered twice or three-times a week were initiated when the tumors reached 5-7 mm in diameter.
When the primary tumors reached a diameter of 5 mm, therapy with 300 μM dimethyl-TMH/mouse, administered intraperitoneally twice per week, was initiated. Three weeks after the initiation of therapy, the number of tumor foci, which have developed at the primary tumor site, was recorded.

[5] = test system: SQ2 highly metastatic anaplastic squamous cell carcinoma; experiment: Survival of SQ2 squamous cell carcinoma-bearing mice treated with dimethyl-TMH; assay type: in vivo, BALB/c mice
Description: In another experiment, BALB/c mice were inoculated with 5×10^5 cells of the SQ2 highly metastatic anaplastic squamous cell carcinoma line, intradermally in shaved backs. When the primary tumors reached a diameter of 3-4 mm, i.p. administration of dimethyl TMH 200 μg/mouse (400 μM/mouse) was initiated on day 7 after tumor cell inoculation and then administered twice weekly to the tumor-bearing mice 2× per week for six weeks (total of 12 doses). Animal survival was then followed. […] This appears to be the result of reduced metastatic growth as evident from Table 1 in Example 4 above.

[6] = Tolerability of intraperitoneal administration in mice; assay type: in vivo, BALB/c mice; conditions: i.p. on a daily basis for one week
[7] = test system: human malignant glioblastoma cell lines; experiment: Photodynamic induction of cell death in glioblastoma cell lines with light; assay type: cell-based
Description: Cell killing by dimethyl-TMH occurred at doses in which hypericin had no effect on the cultures. […] The mechanisms that operate in the dark were very different from those that mediate light-induced photosensitization. In the dark, cell death occurs approximately four days after the compound is administered, whereas the cells died within 2-3 hours with light.
Photodynamic (PD) stress is the level of phototoxicity inflicted upon target cells by photodynamic compounds and exposure to light. Light irradiation was performed from a fluorescent source of two parallel 40 Watts tubes placed at a fixed distance of 16 cm and measured to emit an incidence of 4 mWatt/cm^2. Light intensities were quantitated using the IL 1350 Radiometer/Photometer, from International Light Inc., U.S.A.

tumor neovascularization = experiment: Tumor neovascularization in tumor-bearing mice; conditions: mouse, in vivo
Description: These hitherto unknown attributes were detected while studying the effects of hypericin and of helianthrone derivatives on breast adenocarcinoma tumors induced in mice with the DA-3^HI cell line and on murine anaplastic squamous carcinoma tumors induced with the SQ-2 cell line. Both are highly metastatic tumors and if surgically resected after having reached a diameter larger than 5 mm, the mice will go on to develop metastases in the lungs and liver. The metastases cause death of the animals within approximately two months following surgery.
By preventing development of new blood vessels to supply a growing metastasis, the rapidly growing metastatic focus is deprived of nutrients and oxygen for its rapidly multiplying cells and the lesion degenerates.

[8] = test system: anaplastic squamous cell carcinoma tumors; experiment: Tumor growth in mice bearing anaplastic squamous cell carcinoma tumors; assay type: in vivo, BALB/c mice; conditions: 200 μg/mouse every other day
[9] = 300 μM/mouse i.p. twice per week
[10] = 21 days after start of therapy, 300 μM/mouse i.p. twice per week

With `COc1cc(OC)c2c3c(OC)cc(OC)c4c(=O)c5ccc(C)cc5c(c43)c3c4cc(C)ccc4c(=O)c1c23` [dimethyl-TMH, 10,13-dimethyl-1,3,4,6-tetramethoxy-helianthrone] the “cell viability (MTT)” value [1] was “Cell viability was lost”, the “cell viability (MTT)” value (LAN5 neuroblastoma cells) was “Cell viability was lost” and the “cell viability (MTT)” value (U87MG glioblastoma cells; complete darkness, exposure at least 72 hours, 0.1-20 μM) was “Cell viability was lost”. For the same molecule, the “loss of cell viability compared with hypericin” value (U87MG glioblastoma cells; in the dark) was “more effective than the treatment with hypericin”, the “effect on cell viability” value ([2]; normal non-proliferating PBL, absence of light irradiation) was “no effect” and the “LD50 (cell death after photosensitization)” value ([2]; polychromatic white light 8 mW/cm2 for 30 min (14.4 J/cm2), MTT) was “approximately 0.65 μM”. For the same molecule, the “proportion of cells in the S-phase with duration of exposure” value ([3]; 10 μM, 24, 48, 72 hours) was “increased steadily”, the cell cycle arrest ([3]; 10 μM) was “arrest at mid-S phase” and the cell cycle arrest ([3]; 20 μM) was “exclusive arrest at the S phase”. For the same molecule, the “phases of the cell replication cycle at which malignant cells are arrested” value ([3]; glioblastoma and neuroblastoma cells) was “mid S and G2 phases”, the “toxicity of therapeutic doses to the animals” value [4, 9] was “non-toxic” and the “treated mice in which the primary tumors hardened and fell off” value [4, 9] was 5. The “number of mice with 1 focus” value [4, 10] was 8, the “number of mice with 2 foci” value [4, 10] was 1 and the “number of mice with 3 foci” value [4, 10] was 0. For the same molecule, the “number of mice with 4 foci” value [4, 10] was 0, the “number of tumor foci / multifocal spread of the tumor” value [4] was “considerably reduced” and the “number of tumor foci / multifocal spread of the tumor” value ([4]; listed as dimethyl TMH) was “completely inhibited”. For the same molecule, the “prolongation of animal survival compared to untreated controls” value ([5]; 200 μg/mouse (400 μM/mouse) i.p. twice weekly for six weeks (12 doses)) was “approximately 40.3%”, the “primary tumor growth during the treatment” value ([5]; 200 μg/mouse i.p. twice weekly for six weeks) was “continued to grow” and the “adverse effect on the animals” value [6] was “no adverse effect”. For the same molecule, the “photodynamic induction of cell death compared with hypericin” value ([7]; treatment in conjunction with light) was “more potent than hypericin”, the “time to cell death” value ([7]; with light) was 2 to 3 h and the neovascularization of tumors (tumor neovascularization) was “prevented neovascularization”. The “tumor growth compared to untreated tumor-bearing control mice” value [8] was “significant inhibition of tumor growth”.
